Experimental data from patent US20100120737A1, “Amorphous ciclesonide” (priority 2008, published 2010).
Values after ≈ are worked out from the molar mass of the structure shown.

What was measured:
Format in all cases: physicochemical
[1] = Dissolution experiments (dissolution kinetics in water)
Procedure: For each timepoint (5 min, 10 min, 20 min, 35 min, 60 min and 1440 min) of the dissolution experiment, three samples each of X-ray amorphous and crystalline ciclesonide were prepared by weighing a defined amount of in each case about 15 mg into a 250 ml conical wide-necked Erlenmeyer flask and stirring (850 rpm, glass coated magnetic stir bar, having a length of 2.4 cm and a diameter of 0.59 cm) the samples at 37° C. in 100 ml water (Millipore quality, ELIX 3, Gradient A 10, pH 5.92-6.00). The moment of the addition of water was defined as t0. The tempering of the samples was performed using an air bath. After the desired stirring time, the complete samples were filtered through a 0.2 μm membrane filter (Schleicher & Schuell, RC 0.2 μm Spartan 30/A) and concentrated on a Sep-Pak cartridge (Waters Sep-Pak cartridge C18, WAT051910). The cartridge was then eluted with ethanol (gradient grade, Merck). The ciclesonide in the ethanol solution was then quantified by HPLC (LaChrom®-HPLC System Series 7000, column: Zorbax SB phenyl, eluent: water/ethanol 38%: 62% (v/v) isocratic, column temperature: 60° C., injection volume: 50 μL, UV-detection at 243 nm) against an external standard.

Hygroscopicity = assay: Hygroscopicity
[2] = Saturation solubility experiments; details: water, 24 hours stirring after ultrasonic treatment
Procedure: Defined amounts of in each case about 14 to 25 mg of X-ray amorphous or crystalline ciclesonide were weighed into a conical Erlenmeyer flask equipped with a rubber stopper (n=3). 100 ml of water (Millipore quality. ELIX 3. Gradient A 10, pH 5.92-6.00) were added and 30 minutes of ultrasonic treatment was applied to the samples. Afterwards the samples were stirred in the dark for 24 hours at 37° C. in a water bath. After the desired stirring time, each sample was filtered through a 0.2 μm membrane filter (Schleicher & Schuell, RC 0.2 μm Spartan 30/A) and concentrated on a Sep-Pak cartridge (Waters Sep-Pak cartridge C18, WAT051910). Then the cartridge was eluted with ethanol (gradient grade, Merck). The ciclesonide in the ethanol solution was then quantified by HPLC (LaChrom®-HPLC System Series 7000, column: Zorbax SB phenyl, eluent: water/ethanol 38%: 62% (v/v) isocratic, column temperature: 60° C., injection volume: 50 μL, UV-detection at 243 nm) against an external standard.

[3] = Stability under elevated pressure (recrystallization); details: pressure of up to 2.500 for 5 min
Excerpt: Such a stability against pressure is particularly desirable when a pharmaceutical agent is used for preparation of solid pharmaceutical compositions such as tablets or granules.

| Compound | concentration of dissolved ingredient after 20 minutes ([1]; 37° C., after 20 minutes) [µg/mL] | concentration of dissolved ciclesonide after 24 hours ([1]; 37° C., after 24 hours) [µg/mL] | concentration of dissolved ingredient within 5 minutes ([1]; 37° C., within 5 minutes) [µg/mL] | concentration of dissolved ingredient relative to crystalline ciclesonide after 1 hour ([1]; after 1 hour, amorphous vs crystalline) | hygroscopicity (Hygroscopicity) | saturation solubility ([2]; 37° C.) [µg/mL] | recrystallization under pressure [3] | solubility at 1 h ([1]; pH 6, thermodynamic from solid, 37° C., after 1 hour) [µg/mL] | solubility at 24 h ([2]; 37 °C, pH 6, water, thermodynamic from solid) [µg/mL] |
| --- | --- | --- | --- | --- | --- | --- | --- | --- | --- |
| CC(C)C(=O)OCC(=O)[C@@]12OC(C3CCCCC3)O[C@@H]1CC1[C@@H]3CCC4=CC(=O)C=C[C@]4(C)[C@H]3[C@@H](O)C[C@@]12C (stereo partly drawn) [amorphous ciclesonide, 16,17-[(Cyclohexyl-methylene)bis(oxy)]-11-hydroxy-21-(2-methyl-1-oxopropoxy)-pregna-1,4-diene-3,20-dione[11β,16α]] | 0.34 | 0.105 | 0.29 | about sevenfold | not hygroscopic | 0.0916 ± 0.0052 | did not show any signs of recrystallization |  |  |
| CC(C)C(=O)OCC(=O)[C@@]12OC(C3CCCCC3)O[C@@H]1CC1[C@@H]3CCC4=CC(=O)C=C[C@]4(C)[C@H]3[C@@H](O)C[C@@]12C (stereo partly drawn) [crystalline ciclesonide, 16,17-[(Cyclohexyl-methylene)bis(oxy)]-11-hydroxy-21-(2-methyl-1-oxopropoxy)-pregna-1,4-diene-3,20-dione[11β,16α], reference compound] |  |  |  |  |  |  |  | ~0.05 (≈ 0.0925 µM) | ~0.091 (≈ 0.168 µM) |
